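Values below derive from 48-hour exposures of cells grown in 96-well plates, with endpoints linearly interpolated between the two concentrations bracketing the appropriate inhibition level. At the GI50, growth is halved. TGI: concentration producing complete growth inhibition.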
Key:
Assay in all cases: growth of human tumour cells (NCI), 48 h
[1] = test system: HCC-2998 colon
[2] = test system: HCT-15 colon
[3] = test system: MOLT-4 leukemia
[4] = test system: NCI-H226 lung
[5] = test system: NCI-H522 lung
[6] = test system: RPMI-8226 leukemia
[7] = test system: RXF 393 renal
[8] = test system: SF-268 CNS
[9] = test system: SNB-75 CNS
[10] = test system: U251 CNS

Row | SMILES | TGI [1] [µM] | TGI [2] [µM] | TGI [3] [µM] | TGI [4] [µM] | TGI [5] [µM] | TGI [6] [µM] | TGI [7] [µM] | TGI [8] [µM] | TGI [9] [µM] | TGI [10] [µM] | GI50 [4] [µM] | GI50 [1] [µM] | GI50 [3] [µM] | GI50 [5] [µM] | GI50 [6] [µM] | GI50 [7] [µM] | GI50 [8] [µM] | GI50 [9] [µM] | GI50 [10] [µM] | GI50 [2] [µM]
1 | O=[N+]([O-])c1ccc(NC(=S)N=Nc2c(O)[nH]c3ccc([N+](=O)[O-])cc23)cc1 | 35.9 | 46.8 | > 100 | 86.5 | 60.5 | > 100 | 37.1 | 72.4 | 42.8 | 50.8 |  |  |  |  |  |  |  |  |  | 
2 | Cc1c(CN2CCN(C)CC2)c(CN2CCN(C)CC2)c(C)n1-c1ccc(Cl)cc1 | > 100 | > 100 | 82.8 | > 100 | 40.8 | > 100 | > 100 | > 100 | 88.4 | > 100 |  |  |  |  |  |  |  |  |  | 
3 | COc1ccccc1C1Nn2c(nc3ccccc3c2=O)N1c1ccc(C)cc1 (centres undefined) | 17.5 | 16.9 | 11.4 | 9.94 | 28.5 | 25.9 | 24 | 25.1 | 30.5 | 6.68 |  |  |  |  |  |  |  |  |  | 
4 | CC(C)N1CC2CC(CN(C(=O)c3ccccc3)C2)C1 | > 100 | > 100 | > 100 | > 100 | > 100 | > 100 | > 100 | > 100 | > 100 | > 100 |  |  |  |  |  |  |  |  |  | 
5 | COc1cc(CC(C)NC(C)=O)cc(OC)c1 (centres undefined) | > 100 | > 100 | > 100 | > 100 | > 100 | > 100 | > 100 | > 100 | > 100 | > 100 |  |  |  |  |  |  |  |  |  | 
6 | Cc1cc(S(=O)(=O)Nc2n[nH]c(-c3ccccn3)n2)c(S)cc1Cl | 30.2 | 20.9 | > 100 | 30.5 | 72.4 | > 100 | 34.1 | 88.3 | 85.8 | 67.3 |  |  |  |  |  |  |  |  |  | 
7 | COc1cc(C(=O)Oc2ccc3c(c2)OCO3)cc(OC)c1OC | > 100 | > 100 | > 100 | > 100 | > 100 | > 100 | > 100 | > 100 | > 100 | > 100 |  |  |  |  |  |  |  |  |  | 
8 | Cc1cc2ncn(C3CCCCO3)c2cc1C (centres undefined) | > 100 | > 100 | > 100 | > 100 | > 100 | > 100 | > 100 | > 100 | > 100 | > 100 |  |  |  |  |  |  |  |  |  | 
9 | CN(C)c1ccc(/C=C(\NC(=O)c2ccccc2)c2nn(C)c(=O)o2)cc1 | > 100 | > 100 | > 100 | 93.8 | 47 | > 100 | > 100 | > 100 | 46.8 | 54.3 |  |  |  |  |  |  |  |  |  | 
10 | C/C=C(/C)C(=O)OC1CC(C)[C@H]2CC(=O)C(C)=C2CC1C(C)(C)OC(C)=O (some centres undefined) | 72.1 | > 100 | 76.8 | > 100 | 53 | 60.8 | 54.6 | > 100 | > 100 | > 100 |  |  |  |  |  |  |  |  |  | 
11 | CN(C)CCCNC(=O)c1cc(NC(=O)c2cc(NC(=O)CCCn3c4ccccc4c4ccccc43)cn2C)cn1C | 18.7 | > 75.5 | > 23.1 | 39 | > 90.6 | 39.3 | 37.8 | 41.6 | 39.1 | > 62.2 | 9.26 |  |  |  |  |  |  |  |  | 
12 | CC[C@H](Nc1nc(C)nc(N)c1C#N)c1nc2cccc(NCc3ccc(C(=O)NO)cc3)c2c(=O)n1-c1ccccc1 | 3.28 |  | 5.82 | 4.44 | 3.65 | 5.26 | 2.18 | 3.53 | 7.27 | 2.97 | 1.72 | 1.67 | 1.36 | 1.54 | 2.03 | 0.866 | 1.63 | 1.73 | 1.48 | 
13 | Cn1c(=O)c2c(nc3n(Cc4ccccc4)c(=O)c(NCCCBr)cn23)n(C)c1=O | > 100 | > 100 | > 100 | > 100 | > 100 | > 100 | > 100 | > 100 | 97.7 | > 100 |  |  |  |  |  |  |  |  |  | 
14 | COC(=O)C1CCc2sc3ncnc(Nc4cn[nH]c4C(=O)Nc4ccc(CN5CCN(C)CC5)cc4)c3c21 (centres undefined) | 31.5 | > 100 | 0.991 | > 100 | 1.63 | 4.21 | 0.891 | 2.63 | 2.87 |  | 0.588 | 1.82 | 0.324 | 0.304 | 1.41 | 0.244 | 0.666 | 0.0684 |  | 0.423
15 | CS(=O)(=O)Nc1ccc2c(c1)N(S(C)(=O)=O)CC2CCl (centres undefined) | > 100 | > 100 | > 100 | > 100 | > 100 | > 100 | > 100 | > 100 | > 100 | > 100 |  |  |  |  |  |  |  |  |  | 
16 | CC1CCC2(NC1)OC1CC3C4CC=C5CC(OC6OC(CO)C(OC7OC(C)C(O)C(O)C7O)C(O)C6OC6OC(C)C(O)C(O)C6O)CCC5(C)C4CCC3(C)C1C2C (centres undefined) | 4.72 | 16.9 | 26.7 | 7.97 | 3.43 | 32.5 | 26.5 | 4.05 | 5.87 | 9.37 |  |  |  |  |  |  |  |  |  | 
17 | O=P(O)(O)c1ccccc1Oc1ccccc1 | > 100 | > 100 | > 100 | > 100 | > 100 | > 100 | > 100 | > 100 | > 100 | > 100 |  |  |  |  |  |  |  |  |  | 

Row | SMILES | TGI [1] [µM] | TGI [2] [µM] | TGI [3] [µM] | TGI [4] [µM] | TGI [5] [µM] | TGI [6] [µM] | TGI [7] [µM] | TGI [8] [µM] | TGI [9] [µM] | TGI [10] [µM] | GI50 [4] [µM] | GI50 [1] [µM] | GI50 [3] [µM] | GI50 [5] [µM] | GI50 [6] [µM] | GI50 [7] [µM] | GI50 [8] [µM] | GI50 [9] [µM] | GI50 [10] [µM] | GI50 [2] [µM]
18 | CCC(O)(Cc1ccc(OC)cc1)c1ccc(OC)cc1 (centres undefined) | > 100 | > 100 | > 100 | > 100 | > 100 | > 100 | > 100 | > 100 | > 100 | > 100 |  |  |  |  |  |  |  |  |  | 
19 | CCOC(=O)C1(C#N)C(c2ccccc2)CC(O)(c2ccc(Cl)cc2)C(C(=O)c2ccc(Cl)cc2)C1c1ccccc1 (centres undefined) | > 100 | > 100 | > 100 | > 100 | > 100 | > 100 | > 100 | > 100 | 48.9 |  |  |  |  |  |  |  |  |  |  | 
20 | CN1C(=O)N(C)C(O)C(Cl)(Br)C1=O (centres undefined) | > 100 | > 100 | > 100 | > 100 | > 100 | > 100 | > 100 | > 100 | > 100 | > 100 |  |  |  |  |  |  |  |  |  | 
21 | Cn1c(=O)c(-c2ccccc2)c(O)c2ccccc21 | > 100 | > 100 | > 100 | > 100 | > 100 | > 100 | > 100 | > 100 | > 100 | > 100 |  |  |  |  |  |  |  |  |  | 
22 | CS(=O)(=O)CSCSSCS(C)(=O)=O | > 100 | > 84.8 | > 82.9 | > 100 | 34 | 55.3 | 36.1 | 77.5 | > 100 | > 100 |  |  |  |  |  |  |  |  |  | 
23 | Nc1nc(Cl)cc(NCC2(O)CC2)n1 | > 100 | > 100 | > 100 | > 100 | > 100 | > 100 | > 100 | > 100 | > 100 | > 100 |  |  |  |  |  |  |  |  |  | 
24 | CCCCSc1nsc(N(C(=O)c2ccccc2)C(=O)c2ccccc2)n1 | 74.4 | > 100 | 59.5 | 93.9 | 69.5 | 47.2 | > 100 | > 100 | 73.8 | > 100 |  |  |  |  |  |  |  |  |  | 
25 | COC(=O)[C@@H]1CCCCC[C@H]2C(CO)=C(C)C(=O)C12 (some centres undefined) | > 100 | > 100 | > 100 | > 100 | > 100 | > 100 | > 100 | > 100 | > 100 | > 100 |  |  |  |  |  |  |  |  |  | 
26 | CC(C)(C)OC(=O)NC(Cc1ccccc1)NC(=O)NC(=O)OCc1ccccc1 (centres undefined) | > 100 | > 100 | > 100 | > 100 | > 100 | > 100 | 69.2 | > 100 | 73.2 | > 100 |  |  |  |  |  |  |  |  |  | 
27 | c1ccc2c(c1)Sc1nccc3ccnc-2c13 | > 100 |  | 56.6 | > 100 | 97.1 | > 100 | > 100 | > 100 | 58.7 | > 100 |  |  |  |  |  |  |  |  |  | 
28 | Cc1[nH]c(=O)nc(NCCNCCO)c1C(=O)Nc1cccc2cc3ccccc3cc12 | > 100 | > 100 | > 100 | > 100 | > 100 | > 100 | > 100 | > 100 | > 100 | > 100 |  |  |  |  |  |  |  |  |  | 
29 | CC(C)c1cccc(C(C)C)c1NC(=O)/C(CC(=O)CC(c1ccccc1)c1c(O)c2ccccc2oc1=O)=N/O (centres undefined) | > 100 | > 100 | > 100 | > 100 | > 100 | > 100 | > 100 | > 100 | > 100 | > 100 |  |  |  |  |  |  |  |  |  | 
30 | O=c1[nH]c2nc3ccccc3nc2[nH]c1=O | > 100 | > 100 | > 100 | > 100 | > 100 | > 100 | > 100 | > 100 | > 100 | > 100 |  |  |  |  |  |  |  |  |  | 
31 | O=C(N/N=C(/CCN1CCCC1)CC(c1ccccc1)c1c(O)c2ccccc2oc1=O)c1ccncc1 (centres undefined) | > 100 | > 100 |  | > 100 | > 100 | > 100 | > 100 | > 100 | > 100 | > 100 |  |  |  |  |  |  |  |  |  | 
32 | Cc1cc2c(O)c(c1)CN(CC(=O)O)Cc1cc(C)cc(c1O)CN(CC(=O)O)Cc1cc(C)cc(c1O)CN(CC(=O)O)C2 | > 100 | > 100 | > 100 | > 100 | > 100 | > 100 | > 100 | > 100 | > 100 | > 100 |  |  |  |  |  |  |  |  |  | 
33 | O=C1C=CC(=O)c2c(O)c(N3CCC[C@H]3CO)c(Cl)c(O)c21 | > 6.61 | 4.15 | 1.95 | > 10 | 0.939 | 1.09 | 3.46 | > 10 | > 10 | > 10 |  |  |  |  |  |  |  |  |  | 
34 | CC1C(NNc2ccccc2)Oc2cc3c(cc2C1c1ccccc1O)OCO3 (centres undefined) | 17 | 15.2 | 19.2 | 33.2 | 14.2 | 24.7 | 45.9 | 32.6 | 23.6 | 22.4 |  |  |  |  |  |  |  |  |  | 
